Results as given in the NIST ThermoML archive (doi:10.1021/je900967j).

Assay: xn = mol fraction of the nth substance listed
Details: 298.15 K; 101 kPa; Liquid; Dispersion; x1 = 0

Row | SMILES | binary diffusion coefficient [m2/s]
1 | OCCCCCc1ccccc1 [1-pentanol, 5-phenyl-] + O | 5.32e-10
2 | OCCc1ccccc1 [2-phenylethanol] + O | 7.92e-10
3 | OCCCc1ccccc1 [3-phenyl-1-propanol] + O | 7.22e-10

The next lines start with the values.

Row | binary diffusion coefficient [m2/s] | SMILES
4 | 6.64e-10 | OCCCCc1ccccc1 [4-phenyl-1-butanol] + O
5 | 8.3e-10 | OCc1ccccc1 [benzenemethanol] + O
